Test results: US4757061A, “4-amino androstendione derivatives and process for their preparation” (Farmitalia Carlo Erba, S.p.A., priority 1985, dated 1988)

Columns and labels:
[1] = biological target: T1, human placental aromatase (Homo sapiens, UniProt P11511); assay: Aromatase inhibition in vitro (human placental aromatase, 3H2O release assay); format: biochemical
T1 construct: The enzyme system was isolated from the microsomal fraction of human placental tissue; from tissue; host or cells: human placental tissue, microsomal fraction
T1 sequence (P11511 1-503): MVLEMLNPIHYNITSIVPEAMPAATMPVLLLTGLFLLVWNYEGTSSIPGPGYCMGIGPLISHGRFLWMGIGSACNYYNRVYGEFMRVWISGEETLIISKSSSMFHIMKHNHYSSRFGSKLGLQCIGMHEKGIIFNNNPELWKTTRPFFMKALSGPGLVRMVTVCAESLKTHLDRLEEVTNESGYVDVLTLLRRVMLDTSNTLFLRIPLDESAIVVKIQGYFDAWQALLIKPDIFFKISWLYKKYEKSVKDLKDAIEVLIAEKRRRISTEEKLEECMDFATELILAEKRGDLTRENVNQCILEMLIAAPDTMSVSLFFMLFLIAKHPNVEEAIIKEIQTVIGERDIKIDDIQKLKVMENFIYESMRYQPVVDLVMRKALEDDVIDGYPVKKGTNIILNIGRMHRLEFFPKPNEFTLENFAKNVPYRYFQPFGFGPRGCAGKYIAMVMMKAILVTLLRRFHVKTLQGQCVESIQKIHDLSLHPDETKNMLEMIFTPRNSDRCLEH
Protocol: Aromatase inhibition by the compounds of the present invention was determined, e.g., both in vitro (human placental aromatase) and in vivo (ovarian aromatase activity) in rats.
(a) Aromatase inhibition in vitro
(§1) The enzyme system was isolated from the microsomal fraction of human placental tissue according to standard procedure. The assay of Thompson and Siiteri [E. A. Thompson and P. K. Siiteri, J. Biol. Chem. 249, 5364, (1974)] which determines the rate of aromatization as measured by the liberation of ^3 H2 O from 4-[1β,2β-^3 H] androsten-3,17-dione was used. All incubations were carried out in a shaking water bath at 37° C. in air in 10 mM potassium phosphate buffer, pH 7.5, which contained 100 mM KCl, 1 mM EDA and 1 mM dithiothreitol. The experiments were carried out in 1 ml incubation volume containing 50 nM 4-[…], various concentrations of the inhibitors, 100 μM NADPH and 0.05 mg of microsomal proteins. After 15 minutes of incubation the reaction was stopped by the addition of chloroform (5 ml). After centrifugation at 1500×g for 5 minutes, aliquots (0.5 ml) were removed from the water phase for determination of ^3 H2 O formed. The concentration of each compound required to reduce control aromatase by 50% (IC50) was determined by plotting % inhibition versus log of inhibitor concentration. The relative potency of each compound versus 4 OH-A was calculated according to the relation: [formula] (b) Aromatase inhibition in vivo in rats Adult female rats were twice treated subcutaneously with 100 I.U. pregnant mares' serum gonadotropin (PMSG) at 4 days' interval, in order to increase ovarian aromatase activity, according to Brodie's procedure [A. M. H. Brodie et al., Steroids 38, 693, (1981)]. Three days after the second PMSG treatment, groups of 6 animals each were given orally the vehicle (0.5% methocel) or the inhibitor at 30 mg/kg. Animals were killed 24 hours later, microsomes were isolated from ovaries and their aromatase activity determined using a method similar to that described in (a).

[2] = cited from earlier work
rat ovarian aromatase = assay: Aromatase inhibition in vivo in rats (ovarian aromatase activity); details: for % Aromatase inhibition at 30 mg/kg p.o.: PMSG-treated adult female rats, ovaries taken 24 hours later; for In vivo effectiveness by oral route: 30 mg/kg
From the text: The aromatase inhibitors for formula (I) can find also use in the control of reproduction: indeed a decrease in oestrogen levels in vivo results in gonad-inhibiting activity and in insufficient uterine development; aromatase inhibitors may be at the same time implantation inhibitors. Another application of the compounds of the invention is in the treatment of prostatic hypertrophy or hyperplasia, related to an excessive oestrogen production and the shifting of the oestrogen/androgen ratio to higher values. Furthermore, the compounds of the invention, producing decrease in estradiol formation, may be useful for the treatment of male fertility disturbances (Drugs 28: 263, 1984). […] Accordingly, decreased estradiol formation, as can be obtained through administration of the compounds of the invention, leads to an improvement of both sperm count and fertility, in patients with infertility due to oligozoospermia. Aromatase inhibition by the compounds of the present invention was determined, e.g., both in vitro (human placental aromatase) and in vivo (ovarian aromatase activity) in rats.
as §1

[3] = Resistance to hepatic metabolization; details: oral route

Row | SMILES | IC50 [1] [nM] | Conjugation after oral administration [2] | % Aromatase inhibition at 30 mg/kg p.o. (rat ovarian aromatase) | In vivo effectiveness by oral route (rat ovarian aromatase) | Relative potency (versus 4-OH-A) [1] | Aromatase inhibition in vitro ([1]; in vitro) | In vitro potency relative to 4-OH-A ([1]; in vitro) | Resistance to hepatic metabolization [3] | Aromatase inhibition in vivo (rat ovarian aromatase; in vivo) | In vivo activity compared to androsta-1,4-dien-3,17-dione (rat ovarian aromatase; in vivo) | Potency relative to androsta-1,4-dien-3,17-dione (rat ovarian aromatase; stated as in vivo) | Potency relative to Δ^1-testololactone (times more potent) (rat ovarian aromatase; stated as in vivo)
1 | C[C@]12CCC(=O)C(O)=C1CC[C@@H]1[C@@H]2CC[C@]2(C)C(=O)CC[C@@H]12 [Example 4-OH-A, 4-hydroxyandrost-4-en-3,17-dione, reference compound] | 44 | extensively conjugated after oral administration | inactive | ineffective | – | – | – | – | – | – | – | –
2 | C[C@]12CCC(=O)C(N)=C1C=C[C@@H]1[C@@H]2CC[C@]2(C)C(=O)CC[C@@H]12 [FCE 24210, 4-aminoandrosta-4,6-dien-3,17-dione] | 148 | – | 70% | very effective when administered in vivo by oral route | 0.30 | very potent aromatase inhibitors both in vitro and in vivo | about three times lower than that of 4-OH-A | unusual resistance to hepatic metabolization | very potent aromatase inhibitors both in vitro and in vivo | very superior to that of androsta-1,4-dien-3,17-dione | about equipotent as androsta-1,4-dien-3,17-dione | about 55 times
3 | C[C@]12C=CC(=O)C=C1CC[C@@H]1[C@@H]2CC[C@]2(C)C(=O)CC[C@@H]12 [androsta-1,4-dien-3,17-dione, reference compound] | – | – | 37% | – | – | – | – | – | – | – | – | –
4 | C[C@]12C=CC(=O)C=C1CC[C@@H]1[C@@H]2CC[C@]2(C)OC(=O)CC[C@@H]12 [Δ^1 -testololactone, reference compound] | 8240 | – | inactive | – | 0.005 | – | – | – | – | – | – | –
